Target: T1, PPIP5K2^1-366 (human PPIP5K2 kinase domain) (Homo sapiens, UniProt O43314)
T1 construct: one comprised residues 1–366; made in house
T1 sequence (O43314 1-366): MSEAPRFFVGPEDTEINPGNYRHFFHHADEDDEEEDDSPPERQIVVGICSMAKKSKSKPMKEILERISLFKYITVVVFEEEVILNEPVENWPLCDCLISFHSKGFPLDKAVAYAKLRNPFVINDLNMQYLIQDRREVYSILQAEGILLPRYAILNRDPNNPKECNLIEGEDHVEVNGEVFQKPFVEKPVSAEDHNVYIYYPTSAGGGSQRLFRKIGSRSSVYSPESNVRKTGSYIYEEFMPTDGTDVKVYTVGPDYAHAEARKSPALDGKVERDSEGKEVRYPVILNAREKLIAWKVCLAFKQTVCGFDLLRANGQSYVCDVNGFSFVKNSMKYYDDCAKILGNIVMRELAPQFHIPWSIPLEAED
Assay: Isothermal titration calorimetry of ligand binding to PPIP5K2KD
Settings: ITC, 25°C; for ΔH / ΔS: 7.5 μM PPIP5K2^1-366, 75 μM ligand, pH 7.2; for Kd: 7.5 μM PPIP5K2^1-366 in cell, 75 μM ligand in syringe, pH 7.2, 1mM AMP-PNP, 1mM MgCl2, read-out: Kd (apparent)
Excerpt: We next used isothermal titration calorimetry (ITC) to analyze the interactions of PPIP5K2^KD with 5PP-IP5 and each of the four analogs studied herein (Figure 5A-E). […] At the same time, the enthalpic gain for binding was largest for 5PCF2Am-IP5 and 5PA-IP5. A possible explanation may be that these two ligands are less strongly hydrated, due to their lower overall charge. The enthalpic cost for dehydration of 5PCF2Am-IP5 and 5PA-IP5 is therefore lower, compared to the other molecules, resulting in a higher enthalpic gain overall. A less strongly hydrated ligand will also release fewer water molecules upon binding, consistent with the lower entropic gains.
Figure 5 Analysis of ligand binding to the PPIP5K2^KD by ITC. Test solutions contained 7.5 μM of PPIP5K2^1-366 in the sample cell and 75 μM ligand in the syringe. Other details are provided in the Methods Section. Representative thermograms (1 of 3 replicates) are shown for titration of either (A) 5PP-IP5; (B) 5PCPF2P-IP5; (C) 5PCP-IP5; (D) 5PCF2Am-IP5; (E) 5PA-IP5. (F) Corresponding thermodynamic data. TEXT PRINTED IN THE PICTURE: (F) 5PP-: Kd (nM): 123 ± 13; ΔH (kJ/mol): -26 ± 2; ΔS (kJ/mol/deg): 0.046 ± 0.008 | (F) 5PCF2-: Kd (nM): 246 ± 10; ΔH (kJ/mol): -16 ± 1; ΔS (kJ/mol/deg): 0.072 ± 0.005 | (F) 5PCP-: Kd (nM): 100 ± 10; ΔH (kJ/mol): -20 ± 2; ΔS (kJ/mol/deg): 0.067 ± 0.016 | (F) 5PCF2-Am-: Kd (nM): 90 ± 13; ΔH (kJ/mol): -38 ± 2; ΔS (kJ/mol/deg): 0.007 ± 0.004 | (F) 5PA-: Kd (nM): 90 ± 7; ΔH (kJ/mol): -36 ± 3; ΔS (kJ/mol/deg): 0.013 ± 0.008 […]
(§1) Calorimetry experiments were performed using a MicroCal PEAQ-ITC (Malvern Panalytical) with 7.5 μM recombinant PPIP5K21-366 in the sample cell and 75 μM of ligand in the syringe, each of which was maintained at 25°C in buffer containing 20 mM HEPES, pH 7.2, 150 mM KCl, 0.05 mM EDTA, 1mM AMP-PNP, 1mM MgCl2 as indicated. The sample cell (volume = 204 μL) and the syringe were cleaned before each run. Thermograms were constructed from 13 injections, each of which involved 3 μL of ligand delivered for 6 s, with an equilibration time of 150-300 s between each injection. The stirring speed was set to 750 rpm. Data were fitted to a single binding site model using the analysis software provided by the manufacturer. At least three runs were performed for each condition.
Protein expression and purification.
Throughout the main text, PPIP5K2KD is deployed as an abbreviation for the human PPIP5K2 kinase domain. However, two different constructs were utilized, as described in the figure legends and within the Methods section below: one comprised residues 1–366 (PPIP5K21-366) and the other comprised residues 41–366 (PPIP5K241-366). Both constructs were expressed and purified as described previously.[6] The human DIPP1 construct (residues 1-148) was expressed and purified as described in [7]. […]
The molecular graphics representations wer e prepared with the program PyMol (Schrödinger, LLC). Atomic coordinates an d structure factors have been deposited with the Protein Data Bank with accession codes 8G9C, 8G9D, 8G9E.
PPIP5K2KD reverse kinase assay […]
Isothermal titration calorimetry
as §1, with “PPIP5K21–366” for “PPIP5K21-366”, “2 04 µL)” for “204 μL)”, “µL” for “μL”, “150 -300” for “150-300”, “cond ition. […]” for “condition.”

Row | SMILES | ΔH [kcal/mol] | ΔS [kJ/mol/deg] | Kd [nM]
1 | O=P(O)(O)O[C@H]1[C@@H](OP(=O)(O)O)[C@H](OP(=O)(O)O)[C@@H](OP(=O)(O)C(F)(F)P(=O)(O)O)[C@H](OP(=O)(O)O)[C@H]1OP(=O)(O)O [5PCF2P-IP5] | -3.82 ± 0.24 | 0.072 ± 0.005 | 246
2 | O=P(O)(O)CP(=O)(O)O[C@H]1[C@H](OP(=O)(O)O)[C@@H](OP(=O)(O)O)[C@@H](OP(=O)(O)O)[C@@H](OP(=O)(O)O)[C@@H]1OP(=O)(O)O [5PCP-IP5] | -4.78 ± 0.48 | 0.067 ± 0.016 | 100 ± 10

Source: PMC7615343, “Fluorination Influences the Bioisostery of Myo-Inositol Pyrophosphate Analogs” (Chemistry (Weinheim an der Bergstrasse, Germany), 2023)
